From patent US11174269B2, “Method for producing 1,2,4,5-cyclohexanetetracarboxylic dianhydride” (MITSUBISHI GAS CHEMICAL COMPANY, INC., priority 2017, dated 2021)

Experiment: Saturation solubility of 1,2,4,5-cyclohexanetetracarboxylic acid in water
Format: physicochemical
Excerpt: Here, the saturation solubility of 1,2,4,5-cyclohexanetetracarboxylic acid in water is as follows.

SMILES: O=C(O)C1CC(C(=O)O)C(C(=O)O)CC1C(=O)O (stereo not drawn) [1,2,4,5-cyclohexanetetracarboxylic acid]
- Saturation solubility (concentration of a saturated aqueous solution) (88.2 °C): 29.6 % by mass
- Saturation solubility (concentration of a saturated aqueous solution) (98.3 °C): 33.1 % by mass
- Saturation solubility (concentration of a saturated aqueous solution) (100 °C): 33.7 % by mass
